Our source for the EC50, IC50 and outcome values is PubChem BioAssay AID179 (DTP/NCI, 2004).

pEC50, pIC50: −log10 of the molar value. Activity calls are given as the source filed them.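 Rule for the calls: active = compounds giving half or more protection of infected cells from virus-caused growth loss, again on retest; inactive = the rest.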

Usually pEC50 stands for the EC50 on a negative log10 scale, so that one unit is a factor of ten. For orientation: pIC50 means the negative decadic logarithm of the IC50, by convention in mol/L. Lower therefore signals a high IC50.

The subject of this test is CEM cells HIV-1 protection, formazan growth assay. Description: NCI AIDS Antiviral Assay. Particulars: for pIC50: measured here: growth of uninfected CEM cells. Put shortly:
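Human CEM cells, uninfected and HIV-1-infected, received five drug concentrations, and growth was read by soluble formazan assay. Compounds giving at least 50% protection were retested; reproducible 100% protection defined confirmed active.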

Consider `CCOC(=O)/C(=C/c1cc(OC)ccc1OC)P(=O)(OCC)OCC`, for which the pEC50 is less than 3.17 and the pIC50 is 3.50.

Consider `COc1ccc2c3ccc4c(c3n(C)c2c1)C(=O)c1ccccc1C4=O`, for which the pEC50 was less than 5.82 and the pIC50 is less than 5.82. Turning to `Cc1ncc([N+](=O)[O-])n1CCNC(=O)CCCn1ccnc1[N+](=O)[O-]`, the result was inactive. Take `CCCCN(C)C(=O)COc1cc2c(O)c3c(O)c(C)c4c(c13)C(=O)C(C)(O/C=C/C(OC)C(C)C(OC(C)=O)C(C)C(O)C(C)C(O)C(C)/C=C/C=C(\C)C(=O)N2)O4` (stereo not given): the pEC50 is 4.55 and the pIC50 is 4.54. Take `CC(C)N(C(=O)C12C3C4C1(I)C1C2C3(I)C41C(=O)N(C(C)C)C(C)C)C(C)C` (stereo not given): the pEC50 was less than 5.07 and the pIC50 is less than 5.07. Turning to `C=C(c1ccccc1)C1ON(C)CCc2cc(OC)c(OC)cc21` (stereo not given), the pEC50 is less than 3.70 and the negative-log IC50 (pIC50) was less than 4.00. As for `CC1(C)CC(=O)C(/C=N/c2nc(-c3ccc(Br)cc3)cs2)=C(O)C1`, the pEC50 is less than 3.70 and the negative logarithm of the IC50 (pIC50) is 3.94. For the molecule `CC(=O)c1nc(C#N)c(N)o1`, the outcome was inactive. Same read-out and setting: for `OCC(CO)CC1COc2ccccc2O1` (stereo not given) the value was “inactive”. As to `CC12CCC(=O)C=C1C=CC1C2CCC2(C)C1CCC21CCC(=O)O1` (stereo not given), the pEC50 is less than 3.70 and the pIC50 is 4.08. Consider `O=C(NO)c1cccc(OCc2ccc(Br)cc2)c1`, for which the pEC50 is less than 3.70 and the pIC50 is 5.04. The corresponding values for `Cc1ccccc1S(=O)(=O)N1CCN(S(=O)(=O)c2ccccc2C)CC1` are less than 3.70 and less than 3.70.

With `O=C(Nc1cc2c(cc1OCc1ccccc1)N(S(=O)(=O)c1ccccc1)[C@@H]1c3ccccc3OC[C@H]21)c1ccccc1`, the pEC50 is less than 3.70 and the pIC50 was less than 3.70. For `CCOC(=O)Cn1c(=O)c(-c2ccccc2NC(C)=O)nc2ccccc21`, the pEC50 is less than 3.70 and the pIC50 was less than 3.70. Regarding `CC1CC2C(=O)N(c3ccccc3)C(=O)C2c2[nH]c3ccccc3c21` (stereo not given), the outcome was inactive. Take `CC1(C)CC(=O)C2=C(C1)S/C(=C1/SC3=C(S1)C(=O)CC(C)(C)C3)S2`: the pEC50 is less than 5.16 and the pIC50 is less than 5.16.

`COC1C(OC(=O)c2ccc(C)[nH]2)C(O)C(Oc2ccc3c(O)c(NC(=O)c4c[nH]c(C(=O)Nc5c(O)c6ccc(OC7OC(C)(C)C(OC)C(OC(=O)c8ccc(C)[nH]8)C7O)c(C)c6oc5=O)c4C)c(=O)oc3c2C)OC1(C)C` (stereo not given): the pEC50 was less than 4.55 and the pIC50 was 5.13. Consider `CCOC(=O)C(=O)C(CCC(=O)c1ccc2ccccc2c1O)C(=O)OCC` (stereo not given), for which the pEC50 is less than 3.33 and the pIC50 is 3.41. As to `Cc1nn2c(=O)[nH]cnc2c1Cl`, the pEC50 was less than 3.64 and the pIC50 is less than 3.64.

Turning to `O=C(/C=C/c1ccccc1F)c1ccccc1`, the pEC50 was less than 4.64 and the pIC50 is less than 4.64. Take `O=C1CN(c2ccc(Cl)cc2)C(=O)CN1NCNN1CC(=O)N(c2ccc(Cl)cc2)CC1=O`: the pEC50 was less than 3.70 and the pIC50 was less than 3.70. As to `CSc1cc(C(=O)Nc2ccc(C3=NCCN3)cc2)ccc1C(=O)Nc1ccc(C2=NCCN2)cc1`, the pEC50 was less than 3.85 and the pIC50 was 4.14. Regarding `CCCNC(=O)N(C)S(=O)(=O)c1ccc(Cl)cc1`, the result was inactive. For `c1ccc(P(c2ccccc2)c2ccc(P(c3ccccc3)c3ccccc3)nn2)cc1`, the pEC50 was less than 5.07 and the pIC50 was less than 5.07. In the case of `CCN(CC)CCNC(=O)c1ccccc1Nc1c(Cl)cccc1Cl`, the pEC50 is less than 3.70 and the pIC50 was 4.56.

In the case of `O=C(CCc1n[nH]c(=S)o1)Nc1cc(Cl)ccc1Cl`, the pEC50 is less than 3.95 and the pIC50 was less than 3.95. For `C[C@]12CC(C#N)C(=O)C(O)=C1CC[C@@H]1C2CC[C@@]2(C)C1CC[C@@H]2O` (stereo not given in full), the result was inactive. `[Cu+2].[NH-]c1ccccc1C(=O)O.[NH-]c1ccccc1C(=O)O`: the pEC50 is less than 3.70 and the pIC50 is 4.76.
